# Patent publication US20120225180A1, “SALTINESS-IMPROVING AGENT FOR SALTY FOOD AND DRINK” (priority 2009, published 2012)
# Assay: Saltiness evaluation of shiokara (comparison evaluation of flavor by 10 panelists)
# Assay type: in vivo
# Conditions: for Evaluation A: the number of panelists who felt stimulation of saltiness / Evaluation B: the number of panelists who slightly felt stimulation of saltiness / Evaluation N: the number of panelists who judged that the stimulation of saltiness was reduced to mild saltiness / Flavor judgment: the number of panelists who judged it as most proper saltiness: 10 panelists
# Protocol: Sedanenolide was added as a saltiness-improving agent (salty stimulation-reducing agent) of the present invention to commercially available salted squid to obtain shiokara containing sedanenolide at the concentrations shown in the following Table 1.
# A: the number of panelists who felt stimulation of saltiness B: the number of panelists who slightly felt stimulation of saltiness N: the number of panelists who judged that the stimulation of saltiness was reduced to mild saltiness Flavor judgment: the number of panelists who judged it as most proper saltiness
# [1] = shiokara containing 0.01 ppb sedanenolide
# [2] = shiokara containing 0.01 ppm sedanenolide
# [3] = shiokara containing 0.1 ppb sedanenolide
# [4] = shiokara containing 0.1 ppm sedanenolide
# [5] = shiokara containing 1 ppb sedanenolide
# [6] = shiokara containing 1 ppm sedanenolide
# [7] = shiokara containing 1 ppt sedanenolide
# [8] = shiokara containing 10 ppm sedanenolide
structure (smiles),measurement,setting,value
CCCC[C@@H]1OC(=O)C2=C1CCC=C2 [sedanenolide],"saltiness improvement, overall result",amount of sedanenolide about 0.1 ppb to 1 ppm,particularly good results
same,improvement in stimulation of saltiness,low concentration of 0.01 ppb sedanenolide,some panelists felt some improvement in stimulation of saltiness
same,Evaluation A: the number of panelists who felt stimulation of saltiness,[1],6
same,Evaluation B: the number of panelists who slightly felt stimulation of saltiness,[1],4
same,Evaluation N: the number of panelists who judged that the stimulation of saltiness was reduced to mild saltiness,[1],0
same,Flavor judgment: the number of panelists who judged it as most proper saltiness,[1],0
same,stimulation of saltiness,shiokara containing 0.01 ppb to 10 ppm of sedanenolide,improved
same,Evaluation A: the number of panelists who felt stimulation of saltiness,[2],2
same,Evaluation B: the number of panelists who slightly felt stimulation of saltiness,[2],2
same,Evaluation N: the number of panelists who judged that the stimulation of saltiness was reduced to mild saltiness,[2],6
same,Flavor judgment: the number of panelists who judged it as most proper saltiness,[2],3
same,Evaluation A: the number of panelists who felt stimulation of saltiness,[3],2
same,Evaluation B: the number of panelists who slightly felt stimulation of saltiness,[3],7
same,Evaluation N: the number of panelists who judged that the stimulation of saltiness was reduced to mild saltiness,[3],1
same,Flavor judgment: the number of panelists who judged it as most proper saltiness,[3],0
same,Evaluation A: the number of panelists who felt stimulation of saltiness,[4],1
same,Evaluation B: the number of panelists who slightly felt stimulation of saltiness,[4],2
same,Evaluation N: the number of panelists who judged that the stimulation of saltiness was reduced to mild saltiness,[4],7
same,Flavor judgment: the number of panelists who judged it as most proper saltiness,[4],4
same,Evaluation A: the number of panelists who felt stimulation of saltiness,[5],3
same,Evaluation B: the number of panelists who slightly felt stimulation of saltiness,[5],2
same,Evaluation N: the number of panelists who judged that the stimulation of saltiness was reduced to mild saltiness,[5],5
same,Flavor judgment: the number of panelists who judged it as most proper saltiness,[5],0
same,Evaluation A: the number of panelists who felt stimulation of saltiness,[6],0
same,Evaluation B: the number of panelists who slightly felt stimulation of saltiness,[6],1
same,Evaluation N: the number of panelists who judged that the stimulation of saltiness was reduced to mild saltiness,[6],9
same,Flavor judgment: the number of panelists who judged it as most proper saltiness,[6],2
same,Evaluation A: the number of panelists who felt stimulation of saltiness,[7],10
same,Evaluation B: the number of panelists who slightly felt stimulation of saltiness,[7],0
same,Evaluation N: the number of panelists who judged that the stimulation of saltiness was reduced to mild saltiness,[7],0
same,Flavor judgment: the number of panelists who judged it as most proper saltiness,[7],0
same,Evaluation A: the number of panelists who felt stimulation of saltiness,[8],0
same,Evaluation B: the number of panelists who slightly felt stimulation of saltiness,[8],1
same,Evaluation N: the number of panelists who judged that the stimulation of saltiness was reduced to mild saltiness,[8],9
same,Flavor judgment: the number of panelists who judged it as most proper saltiness,[8],1
